Measured values as given in PubChem BioAssay (NCI).
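Test compounds were applied to cells in 96-well plates for 48 hours at 5 doses. GI50 marks 50% less growth. Definition used: TGI = concentration required for complete inhibition of growth.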

How the values were obtained:
Assay in all cases: NCI tumour cell line growth inhibition, 48 h
786-0 renal = system: 786-0 renal
A498 renal = system: A498 renal
A549 NSCLC = system: A549 NSCLC
ACHN renal = system: ACHN renal
BT-549 breast = system: BT-549 breast
CAKI-1 renal = system: CAKI-1 renal
CCRF-CEM leukemia = system: CCRF-CEM leukemia
DU-145 prostate = system: DU-145 prostate
EKVX NSCLC = system: EKVX NSCLC
HCC-2998 colon = system: HCC-2998 colon
HCT-116 colon = system: HCT-116 colon
HCT-15 colon = system: HCT-15 colon
HL-60(TB) leukemia = system: HL-60(TB) leukemia
HOP-62 NSCLC = system: HOP-62 NSCLC
HOP-92 NSCLC = system: HOP-92 NSCLC
HS 578T breast = system: HS 578T breast
HT29 colon = system: HT29 colon
IGROV1 ovarian = system: IGROV1 ovarian
K-562 leukemia = system: K-562 leukemia
KM12 colon = system: KM12 colon
LOX IMVI melanoma = system: LOX IMVI melanoma
M14 melanoma = system: M14 melanoma
MALME-3M melanoma = system: MALME-3M melanoma
MCF7 breast = system: MCF7 breast
MDA-MB-231 breast = system: MDA-MB-231 breast
MDA-MB-435 = system: MDA-MB-435
MDA-MB-468 breast = system: MDA-MB-468 breast
MOLT-4 leukemia = system: MOLT-4 leukemia
NCI-H226 lung = system: NCI-H226 lung
NCI-H23 lung = system: NCI-H23 lung
NCI-H522 lung = system: NCI-H522 lung
NCI/ADR-RES ovarian = system: NCI/ADR-RES ovarian
OVCAR-3 ovarian = system: OVCAR-3 ovarian
OVCAR-4 ovarian = system: OVCAR-4 ovarian
OVCAR-5 ovarian = system: OVCAR-5 ovarian
OVCAR-8 ovarian = system: OVCAR-8 ovarian
PC-3 prostate = system: PC-3 prostate
RPMI-8226 leukemia = system: RPMI-8226 leukemia
RXF 393 renal = system: RXF 393 renal
SF-268 CNS = system: SF-268 CNS
SF-295 CNS = system: SF-295 CNS
SF-539 CNS = system: SF-539 CNS
SK-MEL-2 melanoma = system: SK-MEL-2 melanoma
SK-MEL-28 melanoma = system: SK-MEL-28 melanoma
SK-MEL-5 melanoma = system: SK-MEL-5 melanoma
SN12C renal = system: SN12C renal
SNB-19 CNS = system: SNB-19 CNS
SNB-75 CNS = system: SNB-75 CNS
SW-620 colon = system: SW-620 colon
T-47D breast = system: T-47D breast
TK-10 renal = system: TK-10 renal
U251 CNS = system: U251 CNS
UACC-257 melanoma = system: UACC-257 melanoma
UACC-62 melanoma = system: UACC-62 melanoma

SMILES: Cc1ccc2c(c1)nc(-c1ccccc1)n2CC(=O)N=Nc1c(O)[nH]c2ccc(Br)cc12
- GI50 (786-0 renal): 1.73 µM
- TGI (786-0 renal): 3.16 µM
- GI50 (A498 renal): 2 µM
- TGI (A498 renal): 3.99 µM
- GI50 (A549 NSCLC): 1.9 µM
- TGI (A549 NSCLC): 4.03 µM
- GI50 (ACHN renal): 1.59 µM
- TGI (ACHN renal): 2.94 µM
- GI50 (BT-549 breast): 1.85 µM
- TGI (BT-549 breast): 3.53 µM
- GI50 (CAKI-1 renal): 1.54 µM
- TGI (CAKI-1 renal): 3.62 µM
- GI50 (CCRF-CEM leukemia): 2.09 µM
- TGI (CCRF-CEM leukemia): 4.96 µM
- GI50 (DU-145 prostate): 2.29 µM
- TGI (DU-145 prostate): 4.85 µM
- GI50 (EKVX NSCLC): 1.38 µM
- TGI (EKVX NSCLC): 2.92 µM
- GI50 (HCC-2998 colon): 1.85 µM
- TGI (HCC-2998 colon): 3.44 µM
- GI50 (HCT-116 colon): 1.74 µM
- TGI (HCT-116 colon): 3.34 µM
- GI50 (HCT-15 colon): 1.69 µM
- TGI (HCT-15 colon): 3.18 µM
- GI50 (HL-60(TB) leukemia): 3.16 µM
- TGI (HL-60(TB) leukemia): > 100 µM
- GI50 (HOP-62 NSCLC): 1.75 µM
- TGI (HOP-62 NSCLC): 3.39 µM
- GI50 (HOP-92 NSCLC): 1.22 µM
- TGI (HOP-92 NSCLC): 2.64 µM
- GI50 (HS 578T breast): 1.86 µM
- TGI (HS 578T breast): 5.62 µM
- GI50 (HT29 colon): 1.78 µM
- TGI (HT29 colon): 3.45 µM
- GI50 (IGROV1 ovarian): 1.71 µM
- TGI (IGROV1 ovarian): 3.29 µM
- GI50 (K-562 leukemia): 3.15 µM
- TGI (K-562 leukemia): > 100 µM
- GI50 (KM12 colon): 2.06 µM
- TGI (KM12 colon): 4.89 µM
- GI50 (LOX IMVI melanoma): 1.55 µM
- TGI (LOX IMVI melanoma): 2.91 µM
- GI50 (M14 melanoma): 1.69 µM
- TGI (M14 melanoma): 3.35 µM
- GI50 (MALME-3M melanoma): 1.63 µM
- TGI (MALME-3M melanoma): 3.1 µM
- GI50 (MCF7 breast): 1.54 µM
- TGI (MCF7 breast): 3.16 µM
- GI50 (MDA-MB-231 breast): 1.89 µM
- TGI (MDA-MB-231 breast): 4.25 µM
- GI50 (MDA-MB-435): 1.68 µM
- TGI (MDA-MB-435): 3.77 µM
- GI50 (MDA-MB-468 breast): 1.75 µM
- TGI (MDA-MB-468 breast): 3.18 µM
- GI50 (MOLT-4 leukemia): 2.22 µM
- TGI (MOLT-4 leukemia): 5.62 µM
- GI50 (NCI-H226 lung): 1.47 µM
- TGI (NCI-H226 lung): 2.97 µM
- GI50 (NCI-H23 lung): 1.77 µM
- TGI (NCI-H23 lung): 3.36 µM
- GI50 (NCI-H522 lung): 1.87 µM
- TGI (NCI-H522 lung): 4.1 µM
- GI50 (NCI/ADR-RES ovarian): 1.7 µM
- TGI (NCI/ADR-RES ovarian): 3.27 µM
- GI50 (OVCAR-3 ovarian): 1.91 µM
- TGI (OVCAR-3 ovarian): 3.45 µM
- GI50 (OVCAR-4 ovarian): 1.83 µM
- TGI (OVCAR-4 ovarian): 3.81 µM
- GI50 (OVCAR-5 ovarian): 1.83 µM
- TGI (OVCAR-5 ovarian): 4.28 µM
- GI50 (OVCAR-8 ovarian): 1.89 µM
- TGI (OVCAR-8 ovarian): 3.8 µM
- GI50 (PC-3 prostate): 1.56 µM
- TGI (PC-3 prostate): 3.16 µM
- GI50 (RPMI-8226 leukemia): 2.18 µM
- TGI (RPMI-8226 leukemia): 5.46 µM
- GI50 (RXF 393 renal): 0.773 µM
- TGI (RXF 393 renal): 2.22 µM
- GI50 (SF-268 CNS): 2.44 µM
- TGI (SF-268 CNS): 8.56 µM
- GI50 (SF-295 CNS): 1.54 µM
- TGI (SF-295 CNS): 2.93 µM
- GI50 (SF-539 CNS): 1.63 µM
- TGI (SF-539 CNS): 3.02 µM
- GI50 (SK-MEL-2 melanoma): 1.81 µM
- TGI (SK-MEL-2 melanoma): 3.64 µM
- GI50 (SK-MEL-28 melanoma): 1.65 µM
- TGI (SK-MEL-28 melanoma): 3.06 µM
- GI50 (SK-MEL-5 melanoma): 1.74 µM
- TGI (SK-MEL-5 melanoma): 3.58 µM
- GI50 (SN12C renal): 1.78 µM
- TGI (SN12C renal): 4.16 µM
- GI50 (SNB-19 CNS): 1.95 µM
- TGI (SNB-19 CNS): 4.28 µM
- GI50 (SNB-75 CNS): 1.1 µM
- TGI (SNB-75 CNS): 3.06 µM
- GI50 (SW-620 colon): 2.2 µM
- TGI (SW-620 colon): 5.47 µM
- GI50 (T-47D breast): 1.82 µM
- TGI (T-47D breast): 4.4 µM
- GI50 (TK-10 renal): 3.12 µM
- TGI (TK-10 renal): 7.14 µM
- GI50 (U251 CNS): 1.76 µM
- TGI (U251 CNS): 3.43 µM
- GI50 (UACC-257 melanoma): 1.73 µM
- TGI (UACC-257 melanoma): 3.81 µM
- GI50 (UACC-62 melanoma): 1.44 µM
- TGI (UACC-62 melanoma): 2.8 µM
